≈ marks a conversion by molar mass, not a printed value. Where “and” joins values, the source holds several entries; their conditions need not be identical. Equal entries are not always repeated. Where two headings read alike, the source gives them in different places.
Experiments:
[1] = target: ClpC1 NTD protein (M. tuberculosis) (Mycobacterium tuberculosis, UniProt P9WPC9); test: biochemical; type: binding; conditions: for koff: read-out: koff ClpC1-NTD
Caco-2 monolayers = test: in vitro
Method in brief: (§1)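 Permeability across Caco-2 monolayers was measured in both directions, apical-to-basolateral and basolateral-to-apical, in 10^-6 cm s-1. Efflux ratio = P(B−A)/P(A−B). Intrinsic permeability is the mean of P(A−B) and P(B−A).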

[2] = Microsomal stability, human; type: in vitro ADME
Method: (§2) The kinetics of compound degradation in liver microsomes is assessed in an assay with 1 µmol/l of compound and 0.5 mg/ml liver microsomes in a medium of 100 mM Tris-HCl pH 7.5, 6.5 mM MgCl2 and 1 mM NADPH at 37 °C. The reaction is stopped at multiple time points by adding acetonitrile. After centrifugation, the compound concentration is measured in the supernatants by high-performance liquid chromatography (HPLC) tandem mass spectrometry (MS/MS). The results are fitted to a first-order decay and the half-lives are converted to clearance (stated as % of the liver blood flow (%Qh)) using the well-stirred liver model.

[3] = Hepatocyte stability, mice; type: in vitro ADME
Method in brief: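 1 µM cpd (DMSO <0.05% final), cryopreserved hepatocytes ~1e6 cells/mL, 50% serum, pH 7.4, 37 °C/5–10% CO2; up to 6 h, 6 timepoints; ACN quench, HPLC-MS/MS; t1/2 → CL via well-stirred model, % Qh.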

[4] = type: in vitro ADME, Rat
[5] = type: in vitro ADME, Human
[6] = test system: M. tuberculosis H37Rv (ATCC 27294); test: microbe, parasite or virus in culture; type: cell-based
Msm 607 = test: microbe, parasite or virus in culture; type: cell-based
Msm 700084 = test: microbe, parasite or virus in culture; type: cell-based
[7] = target: His6-tagged ClpC1-NTD substrate, M. smegmatis ClpC1P1P2 (UniProt A0R574+P9WPC9); test: biochemical; type: biochemical
His6-tagged ClpC1-NTD substrate, M. smegmatis ClpC1P1P2, sequence (P9WPC9 1-156, looked up, natural form): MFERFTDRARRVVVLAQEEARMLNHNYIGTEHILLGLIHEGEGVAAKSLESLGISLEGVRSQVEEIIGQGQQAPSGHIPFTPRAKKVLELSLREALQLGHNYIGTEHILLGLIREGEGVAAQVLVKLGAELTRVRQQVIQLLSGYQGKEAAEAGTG
His6-tagged ClpC1-NTD substrate, M. smegmatis ClpC1P1P2, sequence (A0R574 whole entry): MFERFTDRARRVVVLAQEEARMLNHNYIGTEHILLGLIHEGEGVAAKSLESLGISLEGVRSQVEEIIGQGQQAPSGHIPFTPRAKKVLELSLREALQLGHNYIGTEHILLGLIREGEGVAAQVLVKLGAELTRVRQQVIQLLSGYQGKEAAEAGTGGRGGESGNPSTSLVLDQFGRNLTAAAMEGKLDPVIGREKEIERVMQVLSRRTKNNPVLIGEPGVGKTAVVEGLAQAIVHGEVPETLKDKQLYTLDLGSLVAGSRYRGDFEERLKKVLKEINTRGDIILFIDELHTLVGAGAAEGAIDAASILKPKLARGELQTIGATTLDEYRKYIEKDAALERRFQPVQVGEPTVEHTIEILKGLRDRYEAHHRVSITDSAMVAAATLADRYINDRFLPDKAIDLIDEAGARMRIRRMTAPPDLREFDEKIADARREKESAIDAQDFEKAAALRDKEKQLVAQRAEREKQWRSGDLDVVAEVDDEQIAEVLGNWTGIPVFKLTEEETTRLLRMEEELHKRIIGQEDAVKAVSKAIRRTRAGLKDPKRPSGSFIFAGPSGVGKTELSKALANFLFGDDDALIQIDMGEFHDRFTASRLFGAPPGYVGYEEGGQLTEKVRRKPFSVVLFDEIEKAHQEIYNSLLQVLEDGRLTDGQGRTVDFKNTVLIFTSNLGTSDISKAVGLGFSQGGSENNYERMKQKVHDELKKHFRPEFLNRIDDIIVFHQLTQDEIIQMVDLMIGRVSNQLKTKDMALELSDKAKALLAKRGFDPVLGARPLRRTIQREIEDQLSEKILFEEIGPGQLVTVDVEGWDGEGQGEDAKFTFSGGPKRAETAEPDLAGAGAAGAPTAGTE

[8] = target: ClpC1-NTD substrate, M. tuberculosis ClpC1P1P2 (Mycobacterium tuberculosis, UniProt P9WPC9); test: biochemical; type: biochemical
ClpC1-NTD substrate, M. tuberculosis ClpC1P1P2, sequence (P9WPC5 whole entry): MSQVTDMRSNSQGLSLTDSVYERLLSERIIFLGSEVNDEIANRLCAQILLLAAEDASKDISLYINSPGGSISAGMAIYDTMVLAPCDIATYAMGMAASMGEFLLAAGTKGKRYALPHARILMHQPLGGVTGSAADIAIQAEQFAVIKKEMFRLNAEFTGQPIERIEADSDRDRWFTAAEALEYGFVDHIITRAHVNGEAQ
ClpC1-NTD substrate, M. tuberculosis ClpC1P1P2, sequence (P9WPC9 whole entry): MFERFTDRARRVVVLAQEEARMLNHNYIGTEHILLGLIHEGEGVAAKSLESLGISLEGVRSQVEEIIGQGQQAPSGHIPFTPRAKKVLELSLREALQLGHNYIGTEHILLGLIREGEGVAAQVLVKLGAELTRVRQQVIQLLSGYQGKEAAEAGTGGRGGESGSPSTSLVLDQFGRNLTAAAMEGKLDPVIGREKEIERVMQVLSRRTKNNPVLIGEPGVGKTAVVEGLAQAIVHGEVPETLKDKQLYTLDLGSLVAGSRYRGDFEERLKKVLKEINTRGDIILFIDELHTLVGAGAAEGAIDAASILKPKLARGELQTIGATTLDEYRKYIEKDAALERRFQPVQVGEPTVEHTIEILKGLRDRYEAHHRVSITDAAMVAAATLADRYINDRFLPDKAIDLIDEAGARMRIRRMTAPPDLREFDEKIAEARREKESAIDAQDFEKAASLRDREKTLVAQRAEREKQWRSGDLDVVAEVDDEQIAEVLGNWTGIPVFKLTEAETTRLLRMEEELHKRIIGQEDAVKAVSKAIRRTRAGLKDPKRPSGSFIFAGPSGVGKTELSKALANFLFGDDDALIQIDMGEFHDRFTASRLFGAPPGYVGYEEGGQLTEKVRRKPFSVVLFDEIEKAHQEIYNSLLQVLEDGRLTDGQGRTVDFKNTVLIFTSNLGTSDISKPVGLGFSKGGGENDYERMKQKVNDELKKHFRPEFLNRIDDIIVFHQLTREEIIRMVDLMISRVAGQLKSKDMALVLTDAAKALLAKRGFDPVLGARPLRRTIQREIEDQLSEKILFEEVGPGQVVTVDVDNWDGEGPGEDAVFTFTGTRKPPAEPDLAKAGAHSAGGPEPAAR
ClpC1-NTD substrate, M. tuberculosis ClpC1P1P2, sequence (P9WPC3 whole entry, further chain): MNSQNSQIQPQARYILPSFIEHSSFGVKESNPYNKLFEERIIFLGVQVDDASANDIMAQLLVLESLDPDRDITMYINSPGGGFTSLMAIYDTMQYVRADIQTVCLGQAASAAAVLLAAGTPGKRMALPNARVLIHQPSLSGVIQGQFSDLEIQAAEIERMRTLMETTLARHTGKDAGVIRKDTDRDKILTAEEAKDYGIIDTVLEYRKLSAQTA

in vitro = conditions: human; for Papp A→B: Caco-2, Caco-2 permeability P (A-B), apical to basolateral; for Papp B→A: basolateral to apical
Method in brief: as §1

[9] = type: in vitro ADME, Mice
Method: as §2

[10] = type: in vitro ADME, Rat; remark: listed apart in the source
Method: as §2

[11] = read-out: DC50, single measurements
[12] = SPR, single independent measurements
[13] = Caco-2, Caco-2 permeability P (B-A)
[14] = mean value of P(A−B) and P(B−A)
[15] = Mycobacterium tuberculosis, Mtb H37Rv (Supplementary Table 2), read-out: MIC Mtb
[16] = Mycobacterium tuberculosis, single determinations, read-out: Mtb MIC
[17] = Mycolicibacterium smegmatis, 607, read-out: MIC Msm 607
[18] = Mycolicibacterium smegmatis, 700084, single determinations, read-out: Msm 700084 MIC
[19] = Mycolicibacterium smegmatis, 700084, read-out: MIC Msm 700084
[20] = SPR, individual measurements (source data), read-out: KD ClpC1-NTD
[21] = SPR, read-out: ClpC1-NTD KD Mean ± SD
[22] = Mycobacterium tuberculosis, M. tuberculosis H37Rv strain, read-out: MIC Mtb H37Rv Mean ± SD
[23] = individual measurements (source data), read-out: Mtb MIC

ClpC1 NTD protein (M. tuberculosis), sequence (P9WPC9 1-156, looked up, natural form): as the sequence (P9WPC9 1-156, looked up, natural form) above

## COC(c1ccc(OCc2cn(CCOCCOCCOCCOCCn3cc(COc4ccc(C(OC)C5NC(=O)C(C)NC(=O)C(CC(C)CO)N(C)C(=O)C(Cc6cn(C)c7ccccc67)NC(=O)C(C(C)C)NC(=O)C(CC(C)C)N(C)C(=O)C(C(C)C)NC5=O)cc4)nn3)nn2)cc1)C1NC(=O)C(C)NC(=O)C(CC(C)CO)N(C)C(=O)C(Cc2cn(C)c3ccccc23)NC(=O)C(C(C)C)NC(=O)C(CC(C)C)N(C)C(=O)C(C(C)C)NC1=O (stereo not drawn) [SI-39]
[1]
  koff ClpC1-NTD: 1E-3 7E-4 1/s
[1]; read-out: KD ClpC1-NTD
  Kd: 0.477 nM and 0.422 nM
[1]; read-out: KD ClpC1-NTD Mean ± SD
  Kd: 0.45 ± 0.04 nM
Caco-2 monolayers; Caco-2
  CACO permeability PEAB: <0.000 cm/sec
  CACO permeability PEBA: <0.000 cm/sec
  Caco-2 Int. Perm: 2.9 10-6 cm s-1
  Caco-2 permeability P (A-B): < 4.1 10-6 cm s-1
  Caco-2 permeability P (B-A): < 1.7 10-6 cm s-1
[2]
  Microsomal Stability Human QH: 39.3%
[3]; clearance in hepatocytes
  Hepatocyte Mice: 15 %Qh
[4]
  Hepatocyte Rat: 6 %Qh
  Hepatocyte Stability Rat QH: 6.192%
[5]
  Hepatocyte Human: 12 %Qh
  Hepatocyte Stability Human QH: 12.386%
[6]; Mtb H37Rv (Supplementary Table 2), read-out: MIC Mtb
  MIC: 0.2 µM (≈ 0.446 µg/mL)
[6]; single determinations, read-out: Mtb MIC
  MIC: 0.195 µM (≈ 0.435 µg/mL)
Msm 607; single determinations
  Msm 607 MIC: 12.500 µM
Msm 700084; single determinations, read-out: Msm 700084 MIC
  MIC: 12.500 µM (≈ 27.9 µg/mL)
[7]
  1-Dmax, Mean: 88%
  1-Dmax, single measurements: 79.0% and 91.3% and 94.4%
[7]; read-out: DC50, Mean
  DC50: 5800 nM
[7]; [11]
  DC50: 6500 nM and 5300 nM and 5600 nM
[8]
  1-Dmax, Mean: 73%
  1-Dmax, single measurements: 79.7% and 65.9% and 73.8%
[8]; read-out: DC50, Mean
  DC50: 7700 nM
[8]; [11]
  DC50: 8500 nM and 5900 nM and 8700 nM

## CO[C@H](c1ccc(OCc2cn(CCCCCn3cc(COc4ccc([C@@H](OC)[C@@H]5NC(=O)[C@H](C)NC(=O)[C@H](C[C@@H](C)CO)N(C)C(=O)[C@H](Cc6cn(C)c7ccccc67)NC(=O)[C@H](C(C)C)NC(=O)[C@H](CC(C)C)N(C)C(=O)[C@H](C(C)C)NC5=O)cc4)nn3)nn2)cc1)[C@@H]1NC(=O)[C@H](C)NC(=O)[C@H](C[C@@H](C)CO)N(C)C(=O)[C@H](Cc2cn(C)c3ccccc23)NC(=O)[C@H](C(C)C)NC(=O)[C@H](CC(C)C)N(C)C(=O)[C@H](C(C)C)NC1=O [SI-40]
[1]; SPR (Supplementary Table 1), read-out: KD ClpC1-NTD Mean ± SD
  Kd: 0.66 ± 0.04 nM
[1]; [12]
  koff ClpC1-NTD: 0.0009 s⁻¹
  koff: 0.001 s⁻¹
[1]; SPR, single independent measurements, read-out: KD ClpC1-NTD
  Kd: 0.686 nM and 0.636 nM
In vitro
  Papp A→B: < 25 nm/s
In vitro; [13]
  Papp B→A: < 7 nm/s
Caco-2 monolayers; [14]
  Caco-2 Int. Perm: 1.60 10-6 cm s-1
[3]; clearance in hepatocytes
  Hepatocyte Mice: 15 %Qh
[4]; Rat
  Hepatocyte Stability Rat QH: 11.911%
[4]; clearance in hepatocytes
  Hepatocyte Rat: 12 %Qh
[5]; Human
  Hepatocyte Stability Human QH: 25.024%
[6]; [15]
  MIC: 0.2 µM (≈ 0.419 µg/mL)
[6]; [16]
  MIC: 0.195 µM (≈ 0.409 µg/mL)
Msm 607; [17]
  MIC: > 50 µM
Msm 607; Mycolicibacterium smegmatis, 607, read-out: Msm 607 MIC, single determinations
  MIC: > 50 µM
Msm 700084; [18]
  MIC: > 50 µM
Msm 700084; [19]
  MIC: > 50 µM

## COC(c1ccccc1)C1NC(=O)C(C)NC(=O)C(CC(C)CO)N(C)C(=O)C(Cc2cn(CC=CCn3cc(CC4NC(=O)C(C(C)C)NC(=O)C(CC(C)C)N(C)C(=O)C(C(C)C)NC(=O)C(C(OC)c5ccccc5)NC(=O)C(C)NC(=O)C(CC(C)CO)N(C)C4=O)c4ccccc43)c3ccccc23)NC(=O)C(C(C)C)NC(=O)C(CC(C)C)N(C)C(=O)C(C(C)C)NC1=O (stereo not drawn) [Compound 15]
[1]; [20]
  Kd: 1.81 nM and 0.654 nM
[1]; [21]
  Kd: 1.2 ± 0.8 nM
Caco-2 monolayers; human, Caco-2
  Caco-2 Efflux ratio: 0.8
  Caco-2 Int. Perm: 2.0
  Caco-2 permeability P (A-B): 2.2
  Caco-2 permeability P (B-A): 1.8
[9]; Mouse
  Microsomal Stability Mouse QH: <24.200%
[9]; clearance in microsomes
  Microsomal Stability Mice: < 24 %Qh
[10]; Rat
  Microsomal Stability Rat QH: <23.100%
[10]; clearance in microsomes
  Microsomal Stability Rat: < 23 %Qh
[2]
  Microsomal Stability Human QH: <24.400%
[2]; clearance in microsomes
  Microsomal Stability Human: < 24 %Qh
[3]; mouse, pH 7.4
  Hepatocyte Mice: 15 %Qh
  Hepatocyte Stability Mouse QH: 15.001%
[4]; rat, pH 7.4
  Hepatocyte Rat: 6 %Qh
  Hepatocyte Stability Rat QH: 6.192%
[5]; human, pH 7.4
  Hepatocyte Human: 12 %Qh
  Hepatocyte Stability Human QH: 12.386%
[6]; [22]
  MIC: 0.2 ± 0.1 µM (≈ 0.372 µg/mL)
[6]; [15]
  MIC: 0.2 ± 0.1 µM (≈ 0.372 µg/mL)
[6]; [23]
  MIC: 0.200 µM and 0.390 µM and 0.097 µM (2×)
Msm 607; [17]
  MIC: 2.3 ± 0.9 µM (≈ 4.27 µg/mL)
Msm 700084; [18]
  MIC: 50 µM (≈ 92.9 µg/mL)
Msm 700084; [19]
  MIC: 50 µM (≈ 92.9 µg/mL)

## CO[C@H](c1ccccc1)[C@@H]1NC(=O)[C@H](C)NC(=O)[C@H](C[C@@H](C)CO)N(C)C(=O)[C@H](Cc2cn(C)c3ccccc23)N(C)C(=O)[C@H](Cc2cn(CCCCCn3cc(C[C@@H]4NC(=O)[C@H](CC(C)C)N(C)C(=O)[C@H](C(C)C)NC(=O)[C@H]([C@H](OC)c5ccccc5)NC(=O)[C@H](C)NC(=O)[C@H](C[C@@H](C)CO)N(C)C(=O)[C@H](Cc5cn(C)c6ccccc56)N(C)C4=O)nn3)nn2)NC(=O)[C@H](CC(C)C)N(C)C(=O)[C@H](C(C)C)NC1=O [Compound 22]
[1]; [20]
  Kd: 0.764 nM and 1.13 nM
[1]; [12]
  koff ClpC1-NTD: 0.01 s⁻¹
  koff: 0.007 s⁻¹
[1]; [21]
  Kd: 0.9 ± 0.3 nM
In vitro; Caco-2
  efflux ratio: 0.3
In vitro; Caco-2, CACO permeability PEBA
  Papp B→A: < 0.51 nm/s
In vitro
  Papp A→B: 5 nm/s
In vitro; [13]
  Papp B→A: 2 nm/s
Caco-2 monolayers; influence of Trp-Nα methylation on P(A-B), matched pair, listed under the methylated partner
  Permeability Correlation P (A-B): 0.7
Caco-2 monolayers; influence of Trp-Nα methylation on efflux ratio, matched pair, listed under the methylated partner
  Permeability Correlation Ratio: 1
Caco-2 monolayers; [14]
  Caco-2 Int. Perm: 0.3 10-6 cm s-1
[3]; clearance in hepatocytes
  Hepatocyte Mice: 15 %Qh
[4]; Rat
  Hepatocyte Stability Rat QH: 9.923%
[4]; clearance in hepatocytes
  Hepatocyte Rat: 10 %Qh
[5]; clearance in hepatocytes
  Hepatocyte Human: 12 %Qh
[6]; [22]
  MIC: 3.1 µM (≈ 6.23 µg/mL)
[6]; [15]
  MIC: 3.1 µM (≈ 6.23 µg/mL)
[6]; Mycobacterium tuberculosis, individual measurements (source data), read-out: Mtb MIC
  MIC: 3.12 µM (≈ 6.28 µg/mL)
[6]; [16]
  MIC: 3.12 µM (≈ 6.28 µg/mL)
[6]; [23]
  MIC: 3.125 µM (≈ 6.28 µg/mL)
Msm 607; [17]
  MIC: 2.3 ± 1.1 µM (≈ 4.62 µg/mL)
Msm 700084; [18]
  MIC: > 50 µM
Msm 700084; [19]
  MIC: > 50 µM
